Test results from a melting point compilation (Tetko et al.; mined from patent text by program, amines drawn as free bases though some values may be those of a salt).

Row | melting point [°C] | SMILES
1 | 290 | O=C1OC(=O)c2cc3ccc([N+](=O)[O-])cc3c3cccc1c23
2 | 200 | COc1cc(C)c(OC)c(OC)c1-c1csc(NC(=O)c2cc3ccccc3[nH]2)n1
3 | 179 to 180 | Cn1ncc2c(=O)n3c(nc21)SCCC3
4 | 90 | COc1c(OC2CCC3(CC2)OCC(C)(C)CO3)ccnc1C
5 | 144 to 145 | COC(=O)C(=O)c1ccc(OCCOc2ccc3ccncc3c2)cc1
6 | 230 | Cc1c(Br)c2ccccn2c1C(=O)c1ccc(N)c(C(=O)O)c1
7 | 91 to 93 | CCCn1c(=O)[nH]c2c(C)ccc(OCC(O)CN3CCC(COc4ccccc4)CC3)c21 (configuration not stated)
8 | 140 to 141 | Cc1cc(C(=O)NCO)ncc1C(c1c(F)ccc(F)c1F)S(=O)(=O)c1ccc(OC(F)(F)F)cc1 (configuration not stated)
9 | 95 to 96 | C=CCNC(=O)N1CC(Oc2cccc(C)c2)C1
10 | 176 to 177 | COc1cc2cc(-c3cccnc3)nc(-c3ccccc3)c2cc1OC
11 | 86 to 100 | O=C(NCCCCC(NC(=O)OCc1ccccc1)C(=O)NC1OC(C(=O)O)CC1O)OCc1ccccc1 (configuration not stated)
12 | 203 to 204 | COc1cccc(Nc2ncc3cc(-c4c(Cl)cccc4Cl)c(=O)n(C)c3n2)c1
13 | 112 to 114 | CN(C#N)C(=O)CCC(=O)N(C)C#N
14 | 83 to 85 | CC(C)C(=O)C(C#N)=C(O)c1ccc(C(F)(F)F)cc1[N+](=O)[O-]
15 | 205 to 207 | O=C1C=C(c2ccc(C(=O)N3Cc4cccn4Cc4ccccc43)cc2)CCC1
16 | 182 to 184 | COc1ccc(S(=O)(=O)C2(CCC/C=C/c3ccc(Cl)cc3)SC(=O)NC2=O)cc1 (configuration not stated)
17 | 173 to 175 | O=C(Nc1ccc(Cl)cc1)N1CC(c2ccccc2)C(c2ccc(Cl)cc2)=N1 (configuration not stated)
18 | 92 | COC(=O)[C@@H]1CCCN1S(=O)(=O)c1ccc(C)c(C(=O)Cl)c1C
19 | 195 to 199 | CC(O)C(=O)NC1CCC(CC2CCC(NC(=O)C(C)O)CC2)CC1 (configuration not stated)
20 | 190 to 192 | O=C(c1ccc(F)cc1)C1CCN(CCCCn2c(=O)[nH]c3cscc3c2=O)CC1
21 | 228 to 230 | CN(CC(=O)O)C(=S)c1cc(-c2ccccc2)nc2ccccc12
22 | 53 to 58 | NCCON=C(CCCCCCNC(=NS(=O)(=O)c1ccc(Cl)cc1)N1CC(c2ccccc2)C(c2ccc(Cl)cc2)=N1)c1ccc(C(F)(F)F)cc1 (configuration not stated)
23 | 185 to 189 | O=C1NC(c2ccccc2)(c2ccccc2)C(=O)N1CO

Row | melting point [°C] | SMILES
24 | 328 | S=c1[nH]cnc2c(Br)csc12
25 | 50 | C=CCOc1ccc(C(=O)OC2CCC(CCCCCCC(=O)C(=C)C)CC2)cc1 (configuration not stated)
26 | 185 to 188 | COc1ccc(NC(=O)c2ccc(Cl)c(Cl)c2)cc1NCc1cccs1
27 | 110 to 122 | CC(C)Oc1ccc(NCCS(=O)(=O)NCCCOc2cccc(CN3CCCCC3)c2)cc1
28 | 223 to 225 | CC(=O)c1cc2c(s1)C(=O)c1ccsc1C2=O
29 | 245 | O=c1oc2c(Cl)cccc2c(O)c1-c1ccccc1
30 | 148 | CS(=O)(=O)N1CCN([C@@H](CNS(=O)(=O)c2ccc(OCc3cccc4ccccc34)cc2)C(=O)NO)CC1
31 | 124 to 126 | COc1ccc(-c2cc(CN3CCN(C)CC3)c(=O)n(CC=Cc3ccc(Cl)cc3)n2)cc1F
32 | 127 | OC(Cn1cncn1)(CC(Cl)(Cl)Cl)c1ccc(F)cc1 (configuration not stated)
33 | 172 to 175 | COC(=O)Nc1nc2ccc(Sc3ccccc3)cn2c1CN(C)C
34 | 125 to 128 | CC(C)N=C(N=c1ccccn1CCc1ccccc1Br)NC(C)C
35 | 95 to 97 | O=C(O)c1cc(F)c(F)c(C2CC2)c1F
36 | 209 to 212 | CN1CCN(c2cccc(Nc3cc(NC(=O)Nc4c(Cl)cccc4Cl)ncn3)c2)CC1
37 | > 350 | Cc1cccc(-c2c(O)c3ccc(Cl)cc3[nH]c2=O)c1
38 | 103 to 104 | C=CCOc1cc(COC2CCCCO2)ccc1OCCI (configuration not stated)
39 | 182 | CCSC(c1ccc(Cl)cc1Cl)C(C(O)C(C)(C)CF)n1cncn1 (configuration not stated)
40 | 213 to 214 | Cc1ccc2c(=O)c(C(=O)O)cn(CCOC=O)c2n1
41 | 106 to 107 | CCOC(=O)C(NC(=O)CC(=O)C=Cc1ccccc1[N+](=O)[O-])C(C)C (configuration not stated)
42 | 42 to 44 | CCOC(=O)COc1c(C)c(C(F)(F)F)nc(C(F)(F)F)c1C(=O)OCC
43 | 136 to 144 | Nc1nc(NCCc2cc(Br)cs2)nc2c1ncn2C1OC(CO)C(O)C1O (configuration not stated)
44 | 239 to 240 | Cc1cc(-c2ccc(NC(=O)CCN3CCC(c4ccccc4)CC3)cc2)n[nH]c1=O
45 | 298 to 300 | O=C(O)c1c(-c2ccccc2)oc2ccccc2c1=O
46 | 177 to 178 | N#Cc1ccc(N(Cc2ccc(OS(N)(=O)=O)cc2)n2cnnc2)cc1-c1ccco1

Row | melting point [°C] | SMILES
47 | 91 to 93 | O=C(O)CCCOc1cccc2occc12
48 | 130 | Cc1ccc(S(=O)(=O)N2[C@@H](CCl)CC[C@H]2c2ccc(F)cc2)cc1 (racemic)
49 | 87 to 89 | CCCCc1cccc(-c2cn(C)cc(-c3ccccc3)c2=O)c1
50 | 87 to 90 | CCN(CC)CCNc1nc(N2CCCC2)nc2ccccc12
51 | 83 to 85 | CC(C)(C)OC(=O)N[C@@H](Cc1ccccc1)[C@@H](O)[C@@H](O)C1CC1
52 | 160 to 161 | CC(=O)Nc1nc(CCc2ccc(CC#N)cc2)cs1
53 | 177 to 179 | Cc1nn(C)c(NN)c1[N+](=O)[O-]
54 | 189 to 190 | O=C(O)COc1c(Cl)cc(Cl)cc1COc1cccc(OCc2ccc3cc(F)ccc3n2)c1
55 | 71 to 74 | O=C(CN1CCN2c3ccccc3Cn3cccc3C2C1)c1ccc(Cl)cc1 (configuration not stated)
56 | 152 to 154 | CN1CCN(c2nc3ccccc3n2CCOc2ccccc2)CC1
57 | 214 to 215 | COc1cc(OC)c2c(=O)[nH]c(-c3ccc(OCCNC(C)C)c(-c4ccc(C(=O)N(C)C)cc4)n3)nc2c1
58 | 210 to 211 | COc1cc(Nc2nccc(-c3sc(-c4cccnc4)nc3C)n2)cc(OC)c1OC
59 | 125 to 127 | CC(C)n1c(=O)nc(-c2ccc3c(c2)OCO3)c2cc3c(cc21)OCO3
60 | 147 to 149 | c1cc(OCCCc2nnn[nH]2)cc(OCc2ccc3ccccc3n2)c1
61 | 148 to 149 | Cc1nnc(-c2ccc3occ(-c4ccccn4)c3c2)o1
62 | 110 to 112 | COc1cc(OC)c(C2CCN(C)CC2=O)c(OC)c1 (single isomer, unassigned; (+))
63 | 173 to 174 | Cc1c(CC(=O)O)oc2ccc(-c3ccccc3)cc12
64 | 228 | CCOC(=O)C1=CC(C(=O)c2cc(C)ccc2O)=CN2CCc3c([nH]c4ccc(OC)cc34)C12C(=O)OCC (configuration not stated)
65 | 272 | Cc1cc(-c2cc(C(F)(F)F)n3ncc(-c4nc(-c5cnc(N)nc5)no4)c3n2)ccc1C(F)(F)F
66 | 98 to 99 | CCCc1c(OCCCCCOc2ccccc2OCC(=O)O)ccc2c1OCCC2=O
67 | 82 to 83 | CCOC(=O)C1=Cc2ccsc2S(=O)(=O)N1CCCOC
68 | 99 to 101 | NC(=O)N(c1ccc(C(F)(F)F)cc1)c1nc(Cl)cc(Cl)n1
69 | 75 to 90 | CN(CC(=O)[C@H](Cc1ccccc1)NC(=O)N1CCOCC1)C(=O)N1CCC[C@H]1C(=O)O

Row | melting point [°C] | SMILES
70 | 112 to 113 | O=C1C(=O)N(Cc2ccc(Br)cc2)c2ccc(S(=O)(=O)N3CCCC3COc3ccccc3)cc21 (configuration not stated)
71 | 135 to 136 | O=C1NN=C(c2ccc(C(F)(F)F)cc2)CC1C(F)(F)F (configuration not stated)
72 | 115 to 118 | CCCNC(=O)[C@H](C)C[C@H](O)[C@H](CC1CCCCC1)NC(=O)[C@H](Cc1cscn1)NC(=O)[C@@H](CC(=O)N(C)Cc1ccccc1)Cc1ccccc1
73 | 219 to 220 | Cc1cc(O)c(C)c(C)c1NC=O
74 | 255 | COc1ccc2ccc(N3C(=O)C4=C(SCCO4)C3=O)nc2n1
75 | 55 to 57 | C=CCNC(=O)N1C[C@@H](Oc2cccc(C(F)(F)F)c2)[C@@H]1C (relative stereo)
76 | 182 to 184 | Cc1c(F)cc(C(=O)O)c(Cl)c1N
77 | 106 | COC(=O)/C=C\C1C(C(=O)O)C1(C)C (configuration not stated)
78 | 297 to 299 | O=c1[nH]nc2c(Br)cccn12
79 | 92 to 93 | CC(C)(c1ccc(OS(=O)(=O)c2ccccc2)cc1)c1ccc(OS(=O)(=O)c2ccccc2)cc1
80 | 44 to 46 | COC(=O)CCC#Cc1ccccc1[N+](=O)[O-]
81 | 240 to 241 | CCc1ccc2nc(-c3ccc(-c4ccccc4)cc3)c(N)c(C(=O)O)c2c1
82 | 216 to 218 | CN1CCN(S(=O)(=O)c2ccc3c(c2)C(=O)c2ccccc2C3=O)CC1
83 | 196 to 200 | CCOC(=O)C1=C(C)Nc2n[nH]cc2C1c1ccccc1OC (configuration not stated)
84 | > 275 | Cc1cc(C)c(CNc2cccc(S(=O)(=O)O)c2)c(C)c1
85 | > 360 | Oc1nc2ccc3ncsc3c2nc1O
86 | 234 | COc1cc2c(cc1OC)[C@@H]1CCCC[C@@H]1N=C2c1ccc(N(S(=O)(=O)c2ccc([N+](=O)[O-])cc2)S(=O)(=O)c2ccc([N+](=O)[O-])cc2)cc1 (racemic)
87 | 253 to 255 | NC(Cc1cc(CP(=O)(O)O)cc(-c2ccc(Cl)cc2)c1)C(=O)OCC=Cc1ccccc1 (configuration not stated)
88 | 6 to 8 | O=C(O)C(Oc1ccccc1)(C(F)(F)F)C(F)(F)F
89 | 118 to 119 | CC[C@H]1Oc2ccccc2C(=O)N2CCC[C@@H]12
90 | 28 to 31 | CCCCCCCCC/C=C(\C)C(=O)O

Row | SMILES | melting point [°C]
91 | CS(=O)(=O)c1cc2c(cc1O)CCNCC2 | 241 to 242
92 | CCCCCC(C)(C)NC(=O)c1nn(-c2ccc(F)cc2F)c2c1C1CCC2C1 (configuration not stated) | 76 to 78
93 | CNC(=O)c1nc(SC)n2c1CN=C(c1ccccc1Cl)c1cc(Cl)ccc1-2 | 224 to 227
94 | OCc1nc2n(c1CO)-c1ccc(Cl)cc1C(c1ccccc1F)=NC2 | 222
95 | CN1CCN(c2cccc3c2CC(=O)CC3)CC1 | > 85
96 | C#CCN1C(=O)N(c2ccc(C#N)c(C(F)(F)F)c2)C(=O)C1(CO)CO | 125 to 126
97 | CN(C)C1(Cc2ccccc2)CCC(=O)CC1 | 80 to 84
